We go through two molecules from publication PMC9915759, “Structural Basis for Self-Discrimination by Neoantigen-Specific TCRs” (Research Square, 2023).

In this assay the test system is TCR 47BE7. Kind of assay: IFNγ intracellular cytokine staining of tgTCR 47BE7 CD8^+ T cells stimulated with peptide. The following applies: for EC50: tgTCR 47BE7 CD8^+ T cells, titrated peptide and αCD28, 6 hours, ICS. The class given is cell-based, mouse. On the procedure: Fig. 2 | Neoantigen-reactive CD8^+ T cells recognise cognate peptide in vitro and in vivo. a, Table detailing attributes of tumour-reactive T cell receptors (TCRs), including neoantigen-reactive (top) and tumour-associated antigen-reactive (TAA-reactive) (bottom) TCRs isolated upon vaccination. b, Neoantigen-reactive CD8^+ T cell responses were induced by vaccination; isolated tetramer^+ T cells were stimulated for 6 hours with (varying concentrations of) cognate peptide and αCD28 and subsequently analyzed via intracellular staining (ICS) flow cytometry for IFNγ expression. c, Transgenic (tg)TCR CD8^+ T cells were co-incubated with varying concentrations of cognate mutant (MT) peptide or wild type (WT) peptide (x-axis) and αCD28 for 6 hours; intracellular staining (ICS) was performed subsequently. Percentage of T cells expressing IFNγ of a parent CD3^+CD8^+ population is shown on y-axis, normalised to maximum IFNγ expression. MT peptide values are shown as clear circles, and WT as filled, black circles. […] TgTCR CD8^+ T cells expressing the indicated TCR were stimulated, as described in c, with titrated mutant (MT) or wild-type (WT) peptide and IFNγ production was measured by ICS. […] Cytokine production was measured by intracellular staining (ICS) flow cytometry (n=3/condition). […] Heatmap shown summarises the frequency of CD8^+tgTCR^+IFγ^+. f, C57BL/6 mice (n=16–26/group) were treated with Hsf2 neoantigen vaccine or PBS (mock) in accordance with timeline shown (top). tumour growth was monitored via external caliper measurement and plotted versus time since tumour inoculation (bottom). g, Tetramer staining on CD3^+ CD8^+ T cells isolated from tumour-infiltrating lymphocytes (TIL) or peripheral blood mononuclear cells (PBMCs) from mice vaccinated with each of the neoantigens listed, using same methodology as described in b. h, Schematic describing administration of ACT in vivo. […]
Fig. 4 | Structure of the pMHC-TCR ternary complex. a, Kinetics of TCR-47BE7 binding to immobilised H2-D^b/Hsf2 p.K72N as determined by biolayer interferometry. […]

Where two headings read alike, the source gives them in different places.

A word on the EC50: it is the concentration that produces a half-maximal response. For `CC[C@H](C)[C@H](NC(=O)[C@H](Cc1c[nH]cn1)NC(=O)[C@@H](NC(=O)[C@@H](NC(=O)[C@H](CC(N)=O)NC(=O)[C@H](CCCNC(=N)N)NC(=O)[C@H](Cc1ccccc1)NC(=O)CNC(=O)[C@@H](N)Cc1ccc(O)cc1)C(C)C)C(C)C)C(=O)O` [Hsf2 p.K72N68–76], the EC50 (n=3, read-out: functional avidity, half-maximal IFNγ production (EC50)) was determined as 5.61e-06 µM.
On to `CC[C@H](C)[C@H](NC(=O)[C@H](Cc1c[nH]cn1)NC(=O)[C@@H](NC(=O)[C@@H](NC(=O)[C@H](CCCCN)NC(=O)[C@H](CCCNC(=N)N)NC(=O)[C@H](Cc1ccccc1)NC(=O)CNC(=O)[C@@H](N)Cc1ccc(O)cc1)C(C)C)C(C)C)C(=O)O` [Hsf2_68–76], for which the “cytokine production on a per-cell basis at saturating peptide concentrations” value (MT versus WT peptide) is on record as “partial agonist only”. Also, the EC50 (95%CI NR, read-out: half-maximal IFNγ production (EC50)) was found to be 8.7 µM.
